The nature of this data set: Study A16 Part 1: PK of single ascending oral doses of fospropofol disodium (200 to 2000 mg), fasted healthy adults. In kind it is in vivo, human. Particulars: single dose of 800 mg (four 200 mg capsules). How it is done: Part 1 of Study A16 was a double-blind, randomized, placebo-controlled study to investigate the safety-tolerability and PK of oral administration of single ascending doses of fospropofol disodium to healthy adult male and female volunteers.
Subjects were healthy adults (age 18-55 years inclusive, BMI 18-29.9 kg/m^2). Separate cohorts of 12 subjects each were randomized to receive fospropofol disodium at doses of 200, 400, 800, 1000, 1200, 1600, or 2000 mg (n=10 per cohort) or matching placebo (n=2 per cohort).
Subjects were admitted to the clinical unit for an overnight fast (Day −1), administered study drug on Day 1, and remained in the clinical unit until Day 2.
Fospropofol disodium was formulated as powder in an HPMC capsule, each capsule containing 200 mg of fospropofol disodium (weight adjusted for water content). Placebo was administered as an appropriate number of matching capsules.
Based on PK results from the early cohorts, sampling times were optimized beginning with Cohort 3 (800 mg) to preclose, 5, 10, 15, 20, 25, 30, 37, and 45, minutes and 1, 2, 4, 6, and 9 hours after closing.

These results are taken from patent US12377110B2, “Fospropofol methods and compositions” (Epalex Corporation, priority 2019, dated 2025).

For the molecule `CC(C)c1cccc(C(C)C)c1OCOP(=O)([O-])O.[Na+]` [fospropofol disodium], the “Tolerability of propofol exposures” value is listed as “well-tolerated”.
